Data as given in patent US11912663B2, “Multi-targeted tyrosine kinase inhibitors and their pharmaceutical uses” (Shanghai AB PharmaTech Ltd., priority 2021, dated 2024).

Legend:
[1] = test system: kidney cancer cell line (Caki-1); test: tumor cell proliferation inhibition (CTG), kidney cancer cell line; type: cell-based; settings: Homo sapiens, 72 hours, read-out: Caki-1 (renal cancer) IC50
[2] = test system: pancreatic cancer cell line (BXPC3); test: tumor cell proliferation inhibition (CTG), pancreatic cancer cell line; type: cell-based; settings: Homo sapiens, BXPC-3, 72 hours
[3] = test system: lung cancer cell line (A549); test: tumor cell proliferation inhibition (CTG), lung cancer cell line; type: cell-based; settings: Homo sapiens, 72 hours
FGFR2 = FGFR2 (Homo sapiens (Human), UniProt P21802); test: kinase inhibition, Mobility-Shift Assay; type: biochemical; settings: 1.9 μM ATP
[4] = test system: cervical cancer cell lines (Hela); test: tumor cell proliferation inhibition (CTG), cervical cancer cell line; type: cell-based; settings: Homo sapiens, 72 hours
VEGFR1 (FLT1) = VEGFR1 (FLT1) (Homo sapiens (Human), UniProt P17948); test: kinase inhibition, Mobility-Shift Assay; type: biochemical; settings: 278 μM ATP
VEGFR3 (FLT4) = VEGFR3 (FLT4) (Homo sapiens (Human), UniProt P35916); test: kinase inhibition, Mobility-Shift Assay; type: biochemical; settings: 84 μM ATP
[5] = test system: leukemia cell line (K562); test: tumor cell proliferation inhibition (CTG), leukemia cell line; type: cell-based; settings: Homo sapiens, 72 hours
[6] = test system: gastric cancer cell line (SNU16); test: tumor cell proliferation inhibition (CTG), gastric cancer cell line; type: cell-based; settings: Homo sapiens, SNU-16, 72 hours, read-out: SUN16 IC50
[7] = test system: hepatocellular carcinoma cell line (Hep3B 2.1-7); test: tumor cell proliferation inhibition (CTG), hepatocellular carcinoma cell line; type: cell-based; settings: Homo sapiens, 72 hours
prostatic cancer (PC-3) = test: tumor cell proliferation inhibition (CTG), PC-3; type: cell-based; settings: 72 hours
hERG potassium channels = hERG potassium channels (Homo sapiens (Human), UniProt Q12809); test: in vitro inhibitory effect of hERG, whole-cell patch clamp; type: cell-based; settings: whole-cell recording, room temperature
hERG potassium channels, sequence (Q12809 whole entry): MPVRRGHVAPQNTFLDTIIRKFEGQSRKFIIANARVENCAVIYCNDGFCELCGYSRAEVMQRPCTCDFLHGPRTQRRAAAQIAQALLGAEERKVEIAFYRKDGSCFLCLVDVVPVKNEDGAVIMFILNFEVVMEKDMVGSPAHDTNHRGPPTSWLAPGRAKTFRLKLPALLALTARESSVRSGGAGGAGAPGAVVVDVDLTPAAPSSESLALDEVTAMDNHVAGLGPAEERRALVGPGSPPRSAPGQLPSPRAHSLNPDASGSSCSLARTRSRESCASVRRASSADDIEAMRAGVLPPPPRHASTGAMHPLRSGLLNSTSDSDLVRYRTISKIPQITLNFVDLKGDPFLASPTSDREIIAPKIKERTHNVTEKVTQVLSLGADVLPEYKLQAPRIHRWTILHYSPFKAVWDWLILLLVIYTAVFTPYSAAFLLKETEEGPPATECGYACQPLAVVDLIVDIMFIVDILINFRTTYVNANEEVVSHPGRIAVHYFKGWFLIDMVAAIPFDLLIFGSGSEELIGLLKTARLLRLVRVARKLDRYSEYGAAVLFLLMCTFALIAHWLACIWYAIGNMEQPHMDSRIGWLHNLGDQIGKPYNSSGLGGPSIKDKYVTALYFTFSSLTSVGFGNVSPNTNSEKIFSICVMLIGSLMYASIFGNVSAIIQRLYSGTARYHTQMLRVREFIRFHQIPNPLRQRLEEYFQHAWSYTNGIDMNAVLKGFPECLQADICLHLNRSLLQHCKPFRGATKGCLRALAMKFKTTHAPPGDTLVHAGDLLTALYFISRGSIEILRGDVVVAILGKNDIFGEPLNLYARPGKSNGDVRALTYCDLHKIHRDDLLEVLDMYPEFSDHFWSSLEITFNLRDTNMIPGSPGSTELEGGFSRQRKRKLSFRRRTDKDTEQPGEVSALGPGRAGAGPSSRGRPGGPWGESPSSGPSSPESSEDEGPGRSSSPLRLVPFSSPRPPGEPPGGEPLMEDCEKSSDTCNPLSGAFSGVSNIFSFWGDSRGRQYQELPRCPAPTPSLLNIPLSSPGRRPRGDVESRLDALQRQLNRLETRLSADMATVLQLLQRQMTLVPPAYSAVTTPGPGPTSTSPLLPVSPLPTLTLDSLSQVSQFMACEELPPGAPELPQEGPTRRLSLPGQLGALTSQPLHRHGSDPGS

VEGFR1 (FLT1), sequence (P17948 27-1338): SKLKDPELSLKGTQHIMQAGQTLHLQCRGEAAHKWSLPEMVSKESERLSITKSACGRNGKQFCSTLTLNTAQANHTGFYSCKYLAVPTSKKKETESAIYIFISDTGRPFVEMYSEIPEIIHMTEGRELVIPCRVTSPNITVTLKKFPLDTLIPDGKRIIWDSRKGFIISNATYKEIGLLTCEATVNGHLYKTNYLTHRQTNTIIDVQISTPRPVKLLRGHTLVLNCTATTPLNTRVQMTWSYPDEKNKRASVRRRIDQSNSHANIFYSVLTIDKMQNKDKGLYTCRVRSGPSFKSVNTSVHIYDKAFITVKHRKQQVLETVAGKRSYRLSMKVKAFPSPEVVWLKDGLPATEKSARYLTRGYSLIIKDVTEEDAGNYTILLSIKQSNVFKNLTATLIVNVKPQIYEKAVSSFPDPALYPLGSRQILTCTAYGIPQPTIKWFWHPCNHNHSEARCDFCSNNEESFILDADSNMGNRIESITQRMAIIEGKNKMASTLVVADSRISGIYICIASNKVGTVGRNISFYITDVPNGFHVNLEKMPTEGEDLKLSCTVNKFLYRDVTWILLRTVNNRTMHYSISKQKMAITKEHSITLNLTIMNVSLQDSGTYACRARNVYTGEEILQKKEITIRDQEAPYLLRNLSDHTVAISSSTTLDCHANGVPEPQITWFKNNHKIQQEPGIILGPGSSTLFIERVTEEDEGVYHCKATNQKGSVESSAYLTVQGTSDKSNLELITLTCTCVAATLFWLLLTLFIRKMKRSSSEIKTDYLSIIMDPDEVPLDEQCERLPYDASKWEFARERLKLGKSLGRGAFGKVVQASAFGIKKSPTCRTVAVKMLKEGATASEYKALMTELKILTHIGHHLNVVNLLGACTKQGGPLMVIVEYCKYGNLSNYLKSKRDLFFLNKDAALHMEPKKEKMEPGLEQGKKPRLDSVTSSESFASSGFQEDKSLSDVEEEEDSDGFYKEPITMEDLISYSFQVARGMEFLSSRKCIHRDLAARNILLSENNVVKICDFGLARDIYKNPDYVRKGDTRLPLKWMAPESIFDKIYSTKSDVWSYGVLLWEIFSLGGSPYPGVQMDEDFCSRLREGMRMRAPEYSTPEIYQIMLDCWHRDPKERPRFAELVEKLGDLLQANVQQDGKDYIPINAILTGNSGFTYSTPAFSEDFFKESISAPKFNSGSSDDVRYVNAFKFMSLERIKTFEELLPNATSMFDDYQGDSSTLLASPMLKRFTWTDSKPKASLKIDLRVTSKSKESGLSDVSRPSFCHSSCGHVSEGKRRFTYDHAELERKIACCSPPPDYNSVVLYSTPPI
FGFR2, sequence (P21802 22-821): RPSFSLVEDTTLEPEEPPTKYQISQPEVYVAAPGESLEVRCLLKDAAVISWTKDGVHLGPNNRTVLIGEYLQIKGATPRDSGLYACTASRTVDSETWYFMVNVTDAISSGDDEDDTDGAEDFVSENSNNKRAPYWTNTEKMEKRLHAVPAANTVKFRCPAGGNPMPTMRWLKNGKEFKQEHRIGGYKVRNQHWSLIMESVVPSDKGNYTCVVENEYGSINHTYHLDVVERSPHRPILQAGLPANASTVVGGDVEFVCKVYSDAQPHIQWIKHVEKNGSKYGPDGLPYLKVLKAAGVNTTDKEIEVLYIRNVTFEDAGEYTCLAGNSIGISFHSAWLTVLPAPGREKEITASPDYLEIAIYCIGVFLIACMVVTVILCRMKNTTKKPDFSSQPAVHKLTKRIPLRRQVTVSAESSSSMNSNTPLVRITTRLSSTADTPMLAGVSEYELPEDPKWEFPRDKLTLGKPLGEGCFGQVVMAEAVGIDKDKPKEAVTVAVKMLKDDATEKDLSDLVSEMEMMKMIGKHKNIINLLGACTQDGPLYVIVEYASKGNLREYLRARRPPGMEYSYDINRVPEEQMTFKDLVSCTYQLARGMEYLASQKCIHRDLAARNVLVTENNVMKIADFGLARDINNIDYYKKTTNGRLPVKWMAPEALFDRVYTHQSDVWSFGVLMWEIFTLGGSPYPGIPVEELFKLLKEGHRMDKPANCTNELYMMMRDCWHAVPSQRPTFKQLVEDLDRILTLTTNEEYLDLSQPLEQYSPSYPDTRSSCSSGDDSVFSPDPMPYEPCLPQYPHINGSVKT
VEGFR3 (FLT4), sequence (P35916 25-1363): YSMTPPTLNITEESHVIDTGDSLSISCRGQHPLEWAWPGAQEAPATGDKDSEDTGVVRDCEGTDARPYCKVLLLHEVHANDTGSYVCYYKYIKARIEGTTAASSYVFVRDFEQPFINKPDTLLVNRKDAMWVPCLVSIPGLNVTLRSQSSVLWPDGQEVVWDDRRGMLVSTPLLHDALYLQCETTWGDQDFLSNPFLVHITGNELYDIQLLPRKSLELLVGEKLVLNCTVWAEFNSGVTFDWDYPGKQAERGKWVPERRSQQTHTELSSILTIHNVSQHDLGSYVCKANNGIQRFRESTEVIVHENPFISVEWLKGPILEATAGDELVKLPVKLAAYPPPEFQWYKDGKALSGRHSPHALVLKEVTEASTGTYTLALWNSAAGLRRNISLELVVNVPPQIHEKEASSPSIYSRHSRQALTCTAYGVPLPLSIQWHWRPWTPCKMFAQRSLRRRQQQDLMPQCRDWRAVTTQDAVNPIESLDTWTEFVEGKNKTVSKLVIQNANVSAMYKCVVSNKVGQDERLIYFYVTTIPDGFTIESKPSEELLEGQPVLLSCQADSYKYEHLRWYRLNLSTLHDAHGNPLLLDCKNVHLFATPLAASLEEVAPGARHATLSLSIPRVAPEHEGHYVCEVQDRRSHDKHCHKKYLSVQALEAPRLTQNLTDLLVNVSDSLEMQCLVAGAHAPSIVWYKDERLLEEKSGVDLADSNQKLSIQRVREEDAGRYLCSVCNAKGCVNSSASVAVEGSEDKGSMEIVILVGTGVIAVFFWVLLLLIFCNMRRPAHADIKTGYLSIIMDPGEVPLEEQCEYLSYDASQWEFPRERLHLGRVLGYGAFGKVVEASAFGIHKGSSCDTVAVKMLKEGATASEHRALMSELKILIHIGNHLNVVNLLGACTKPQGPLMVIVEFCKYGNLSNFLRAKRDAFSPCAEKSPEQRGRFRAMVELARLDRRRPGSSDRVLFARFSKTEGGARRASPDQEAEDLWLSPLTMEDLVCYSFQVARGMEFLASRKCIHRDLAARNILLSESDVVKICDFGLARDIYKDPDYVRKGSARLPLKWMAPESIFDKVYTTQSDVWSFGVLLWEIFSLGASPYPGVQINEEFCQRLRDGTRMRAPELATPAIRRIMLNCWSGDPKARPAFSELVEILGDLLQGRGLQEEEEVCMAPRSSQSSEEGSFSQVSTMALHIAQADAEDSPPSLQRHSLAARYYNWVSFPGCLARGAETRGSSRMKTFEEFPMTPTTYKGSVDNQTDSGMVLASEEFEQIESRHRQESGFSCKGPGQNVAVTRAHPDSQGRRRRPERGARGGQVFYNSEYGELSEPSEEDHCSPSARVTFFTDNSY

| Compound | IC50 [1] [µM] | IC50 [2] [µM] | IC50 [3] [µM] | other results |
| --- | --- | --- | --- | --- |
| COc1cc2nccc(Oc3c(F)cc(NC(=O)NC4CC4)c(Cl)c3F)c2cc1C(=O)N1CC(O)C1 [IIIb-24] | > 5 | > 10 | > 5 |  |
| COc1cc2nccc(Oc3c(F)cc(NC(=O)NC4CC4)c(Cl)c3F)c2cc1C(=O)N1CC[C@@H](O)C1 [IIIb-25] | > 5 | > 10 | > 5 |  |
| COc1cc2nccc(Oc3c(F)cc(NC(=O)NC4CC4)c(Cl)c3F)c2cc1C(=O)N1CC[C@H](O)C1 [IIIb-26] | < 2.5 | < 5 | < 2.5 |  |
| COc1cc2nccc(Oc3c(F)cc(NC(=O)NC4CC4)c(Cl)c3F)c2cc1C(=O)N1CCN(C)CC1 [IIIb-27] | > 5 | > 10 | > 5 |  |
| COc1cc2nccc(Oc3c(F)cc(NC(=O)NC4CC4)c(Cl)c3F)c2cc1C(=O)NC1CCN(C)CC1 [IIIb-28] | > 5 | > 10 | > 5 |  |
| COc1cc2nccc(Oc3c(F)cc(NC(=O)NC4CC4)c(Cl)c3F)c2cc1C#N [IIIb-29] | > 5 | > 10 | > 5 |  |
| COc1cc2nccc(Oc3c(F)cc(NC(=O)NC4CC4)c(Cl)c3OC)c2cc1C#N [IIIb-30] | > 5 | > 10 | > 5 |  |
| COc1cc2nccc(Oc3c(F)cc(NC(=O)NC4CC4)c(Cl)c3F)c2cc1C(=O)NC1(C(F)(F)F)CC1 [IIIb-41] | > 5 | > 10 | > 5 |  |
| COc1cc2nccc(Oc3c(F)cc(NC(=O)NC4CC4)c(Cl)c3F)c2cc1C(=O)NC(CO)C(F)(F)F (stereo not drawn) [IIIb-42] | > 5 | > 10 | > 5 |  |
| COc1cc2nccc(Oc3c(F)cc(NC(=O)NC4CC4)c(Cl)c3F)c2cc1C(=O)NC(C)C#N (stereo not drawn) [IIIb-46] | > 5 | > 10 | > 5 |  |
| COc1cc2nccc(Oc3c(F)cc(NC(=O)NC4CC4)c(Cl)c3F)c2cc1C(=O)NC(C)(C)C#N [IIIb-47] | > 5 | > 10 | > 5 |  |
| COc1cc2nccc(Oc3c(F)cc(NC(=O)NC4CC4)c(Cl)c3F)c2cc1C(=O)NC1(C#N)CC1 [IIIb-48] | > 5 | > 10 | > 5 |  |
| COc1cc2nccc(Oc3c(F)cc(NC(=O)NC4CC4)c(Cl)c3F)c2cc1C(=O)NCC1(C#N)CC1 [IIIb-49] | > 5 | > 10 | > 5 |  |
| COc1cc2nccc(Oc3c(F)cc(NC(=O)NC4CC4)c(Cl)c3F)c2cc1C(=O)NCCN [IIIb-51] | > 5 | > 10 | > 5 |  |
| COc1cc2nccc(Oc3c(F)cc(NC(=O)NC4CC4)c(Cl)c3F)c2cc1C(=O)Nc1cn[nH]c1 [IIIb-52] | > 5 | > 10 | > 5 |  |
| COc1cc2nccc(Oc3c(F)cc(NC(=O)NC4CC4)c(Cl)c3F)c2cc1C(=O)Nc1cnn(C)c1 [IIIb-53] | > 5 | > 10 | > 5 |  |
| COc1cc2nccc(Oc3c(F)cc(NC(=O)NC4CC4)c(Cl)c3F)c2cc1C(=O)Nc1cncn1C [IIIb-54] | > 5 | > 10 | > 5 |  |
| CN(C)CCOc1cc2nccc(Oc3c(F)cc(NC(=O)NC4CC4)c(Cl)c3F)c2cc1C(N)=O [IIIb-59] | > 5 | > 10 | > 5 |  |
| COc1cc2nccc(Oc3ccc(NC(=O)NC4CC4)c(Cl)c3)c2cc1C(N)=O [Lenvatinib, lenvatinib, reference compound] | > 5 | > 10 | > 5 | IC50 (FGFR2): 50 to 100 nM; IC50 [4]: > 10 µM; IC50 (VEGFR1 (FLT1)): 5 to 10 nM; IC50 (VEGFR3 (FLT4)): < 5 nM; IC50 [5]: 5 to 10 µM; IC50 [6]: 5 to 10 µM; IC50 [7]: > 5 µM; IC50 (prostatic cancer (PC-3)): > 10 µM |
| CNC(=O)c1cc(Oc2ccc(NC(=O)Nc3ccc(Cl)c(C(F)(F)F)c3)c(F)c2)ccn1 [Regorafenib, regorafenib, reference compound] | > 5 | > 10 | > 5 | IC50 [4]: > 10 µM; IC50 [5]: > 10 µM; IC50 [6]: 5 to 10 µM; IC50 [7]: > 5 µM; IC50 (prostatic cancer (PC-3)): > 10 µM; IC50 (hERG potassium channels): 27 µM |
| CNC(=O)c1cc(Oc2ccc(NC(=O)Nc3ccc(Cl)c(C(F)(F)F)c3)cc2)ccn1 [Sorafenib, sorafenib, reference compound] |  |  |  | IC50 (hERG potassium channels): > 10 µM |
